Experiment [1] concerns the target T1, equilibrative nucleoside transporter 4 (hENT4) (Homo sapiens, UniProt Q7RTT9).
T1 construct: gene SLC29A4
T1 sequence (Q7RTT9 1-530): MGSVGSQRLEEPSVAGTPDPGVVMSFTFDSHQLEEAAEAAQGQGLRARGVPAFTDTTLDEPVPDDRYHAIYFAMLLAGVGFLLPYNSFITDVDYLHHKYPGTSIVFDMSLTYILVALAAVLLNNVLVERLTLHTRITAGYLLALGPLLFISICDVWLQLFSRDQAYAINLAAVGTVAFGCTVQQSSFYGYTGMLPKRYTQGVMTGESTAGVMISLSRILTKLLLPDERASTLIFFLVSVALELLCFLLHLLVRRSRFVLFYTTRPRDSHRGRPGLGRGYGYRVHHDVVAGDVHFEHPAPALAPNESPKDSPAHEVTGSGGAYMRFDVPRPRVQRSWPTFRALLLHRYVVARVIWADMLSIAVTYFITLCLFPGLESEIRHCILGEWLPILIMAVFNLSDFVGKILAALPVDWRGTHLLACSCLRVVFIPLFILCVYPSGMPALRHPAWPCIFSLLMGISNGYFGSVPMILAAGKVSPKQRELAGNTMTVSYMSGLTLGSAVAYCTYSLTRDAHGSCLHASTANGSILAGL
In words: radiolabelled substrate uptake kinetics (Km, pH […] high-affinity component) and efflux in PK15-hENT4 cells. The class given is cell-based.

Experiment [2] addresses T1, equilibrative nucleoside transporter 4 (hENT4). The experiment in a line: inhibition of [3H]2-chloroadenosine uptake at pH […] in PK15-hENT4 cells. The class given is cell-based.

Read-outs that look alike come from different tables or passages of the source.

`Nc1nc(Cl)nc2c1ncn2[C@@H]1O[C@H](CO)[C@@H](O)[C@H]1O` [2-CADO, 2-chloroadenosine]: the Michaelis constant (Km) (commonly the concentration of substrate that gives half-maximal velocity) in experiment [1] was approximately 50 µM. `CCN1/C(=C/c2ccc3ccccc3[n+]2CC)C=Cc2ccccc21` [D22, decynium 22]: the IC50 – broadly, the concentration that gives 50% inhibition – in experiment [2] (read-out: IC50) was approximately 2300 nM. Compound `C[n+]1ccc(-c2ccccc2)cc1` [MPP+, MPP^+] had a 50% inhibitory concentration (IC50) in experiment [2] of 220000 nM.

In the case of TC-T6000, the IC50 in experiment [2] (read-out: IC50) was approximately 2300 nM.

The values are drawn from PMC6753126, “Bidirectional transport of 2-chloroadenosine by equilibrative nucleoside transporter 4 (hENT4): Evidence for allosteric kinetics at acidic pH” (Scientific Reports, 2019).
